Test results from publication PMC7932537, “Quantitative profiling of protease specificity” (PLoS Computational Biology, 2021).

What was measured:
MMP-9 = assay: Substrate phage display with NGS: relative probability (RP) of P3-P1' tetramer clusters; type: biochemical, human; conditions: for corresponding MMP9 relative probability (RP): MMP2 tetramers from unique substrates, RP of same tetramer for MMP9; for normalized RP - MMP9: normalized RP of matching tetramer; for MMP9 relative probability (RP): MMP9 tetramers from unique substrates, unrounded values
MMP-2 = assay: as above; type: biochemical, human; conditions: for MMP2 relative probability (RP): MMP2 tetramers from unique substrates, unrounded values; for avg_RP: MMP2 - no binning; for relative probability (RP) of matching tetramer: P3-P1' tetramer matching the MS detected MMP2 cleavage sequence, RP_above_4.5; for normalized RP - MMP2: normalized RP of matching tetramer; for corresponding MMP2 relative probability (RP): MMP9 tetramers from unique substrates, RP of same tetramer for MMP2
[1] = MMP9, RP of the P3-P1' tetramer contained in the hexamer substrate (substrate phage display, NGS)
[2] = RP of the P3-P1' tetramer cluster contained in the hexamer, 200 nM MMP-2, 2 h, 37°C, two rounds of selection
[3] = RP of the P3-P1' tetramer, MMP9 substrate phage display/NGS, tetramers of physiologic MEROPS substrates common to MMP2 and MMP9
[4] = RP of the P3-P1' tetramer, MMP2 substrate phage display/NGS, tetramers of physiologic MEROPS substrates common to MMP2 and MMP9
[5] = RP according to MMP2, P3-P1' tetramer of unique physiologic MMP2 substrates from MEROPS
[6] = MMP9, RP of the P3-P1' tetramer matching the MS detected cleavage, RP above 4.7, substrate phage display with NGS
[7] = RP of matching tetramer, common MMP2-9 selectome, RP above KL threshold
[8] = RP of matching tetramer, common MMP2-9 selectome
[9] = MMP9, RP of matching P3-P1' tetramer, common set of MMP2-9 selectome
[10] = average relative probability of the P3-P1' tetramer, redundant tetramers have been averaged out
[11] = MMP2, RP of matching P3-P1' tetramer, common set of MMP2-9 selectome, RP above KL threshold
[12] = RP according to MMP9, P3-P1' tetramer of unique physiologic MMP9 substrates from MEROPS
[13] = RP of matching tetramer, unique part of MMP2 selectome
[14] = RP of matching tetramer, unique part of MMP2 selectome, RP above KL threshold

Q: Which results are given for DSPQNL?
A: relative probability (RP) (MMP-9; [1]): 46.8593; relative probability (RP) (MMP-2; [2]): 32.7851

Q: How did the “relative probability (RP) (acc.to MMP9)” value (MMP-9; [3]) turn out when PPGK was run?
A: The value was 0.

Q: And the “relative probability (RP) (acc.to MMP2)” value (MMP-2; [4])?
A: Its value is 0.14.

Q: For HQKL, which “relative probability (RP) (acc.to MMP9)” value (MMP-9; [3]) is on record?
A: The value was 0.06.

Q: And the “relative probability (RP) (acc.to MMP2)” value (MMP-2; [4])?
A: Its value is 2.29.

Q: Which results are given for LGTY?
A: corresponding MMP9 relative probability (RP) (MMP-9): 0.2972; MMP2 relative probability (RP) (MMP-2): 6.755; Relative probability (RP) rank (MMP-2; [5]): 6426; relative probability (RP) (MMP-2; [5]): 6.75

Q: With PKGYQG as the substance, how does the “relative probability (RP)” value (MMP-9; [1]) read?
A: Its value is 46.8538.

Q: What about the “relative probability (RP)” value (MMP-2; [2]) of the same substance?
A: The value was 30.7046.

Q: How did the “relative probability (RP)” value (MMP-9; [6]) turn out when PVAH was run?
A: Its value is 24.99.

Q: And the “relative probability (RP) (acc.to MMP9)” value (MMP-9; [7])?
A: The value was 24.99.

Q: And the “relative probability (RP) (acc.to MMP2)” value (MMP-2; [8])?
A: The value was 24.82.

Q: Which results are given for PLTL?
A: relative probability (RP) (acc.to MMP9) (MMP-9; [9]): 41.2; relative probability (RP) (MMP-9; [6]): 41.2; relative probability (RP) (acc.to MMP9) (MMP-9; [7]): 41.2; avg_RP (MMP-2; [10]): 24.2603; relative probability (RP) (acc.to MMP2) (MMP-2; [11]): 24.26; relative probability (RP) of matching tetramer (MMP-2): 24.26; relative probability (RP) (acc.to MMP2) (MMP-2; [8]): 24.26

Q: How did the “relative probability (RP)” value (MMP-9; [1]) turn out when PGPAGQ was run?
A: The value was 28.6679.

Q: What about the “relative probability (RP)” value (MMP-2; [2]) of the same substance?
A: The value was 28.0249.

Q: With PRPFHH as the substance, how does the “relative probability (RP)” value (MMP-9; [1]) read?
A: Its value is 43.6397.

Q: What about the “relative probability (RP)” value (MMP-2; [2]) of the same substance?
A: The value was 32.5323.

Q: How did the “relative probability (RP)” value (MMP-9; [1]) turn out when PHPRLL was run?
A: Its value is 38.6219.

Q: What about the “relative probability (RP)” value (MMP-2; [2]) of the same substance?
A: The value was 23.2612.

Q: Which results are given for VAEM?
A: corresponding MMP9 relative probability (RP) (MMP-9): 2.985; Relative probability (RP) rank (MMP-9; [12]): 7772; relative probability (RP) (MMP-9; [12]): 2.99; relative probability (RP) (acc.to MMP9) (MMP-9; [3]): 2.99; MMP2 relative probability (RP) (MMP-2): 19.6601; Relative probability (RP) rank (MMP-2; [5]): 1857; relative probability (RP) (MMP-2; [5]): 19.66; relative probability (RP) (acc.to MMP2) (MMP-2; [4]): 19.66

Q: With IGRF as the substance, how does the “corresponding MMP9 relative probability (RP)” value (MMP-9) read?
A: Its value is 0.4689.

Q: What about the “MMP2 relative probability (RP)” value (MMP-2) of the same substance?
A: Its value is 13.8957.

Q: What about the “Relative probability (RP) rank” value (MMP-2; [5]) of the same substance?
A: Its value is 3460.

Q: And the “relative probability (RP)” value (MMP-2; [5])?
A: The value was 13.9.

Q: Which “relative probability (RP) (acc.to MMP9)” value (MMP-9; [3]) does the source give for PSGK here?
A: The value was 1.08.

Q: And the “relative probability (RP) (acc.to MMP2)” value (MMP-2; [4])?
A: Its value is 2.08.

Q: With EVPQAL as the substance, how does the “relative probability (RP)” value (MMP-9; [1]) read?
A: Its value is 48.457.

Q: What about the “relative probability (RP)” value (MMP-2; [2]) of the same substance?
A: Its value is 34.4508.

Q: How did the “relative probability (RP) (acc.to MMP9)” value (MMP-9; [13]) turn out when LAYL was run?
A: The value was 2.51.

Q: What about the “normalized RP - MMP9” value (MMP-9; unique part of MMP2 selectome) of the same substance?
A: The value was 0.04792.

Q: And the “relative probability (RP) of matching tetramer” value (MMP-2)?
A: Its value is 25.34.

Q: And the “relative probability (RP) (acc.to MMP2)” value (MMP-2; [14])?
A: The value was 25.34.

Q: What about the “normalized RP - MMP2” value (MMP-2; unique part of MMP2 selectome) of the same substance?
A: Its value is 0.6939.

Q: Which results are given for EMRL?
A: MMP9 relative probability (RP) (MMP-9): 0.2922; corresponding MMP2 relative probability (RP) (MMP-2): 11.559

Q: What does the source list for LAPL [P3-P1' tetramer cluster]?
A: corresponding MMP9 relative probability (RP) (MMP-9): 4.642; MMP2 relative probability (RP) (MMP-2): 31.5631; Relative probability (RP) rank (MMP-2; [5]): 227; relative probability (RP) (MMP-2; [5]): 31.56; relative_probability (MMP-2; tetramer clusters unique to the MMP-2 selectome, MMP-2 RP): 31.56

Q: Which results are given for AIHI?
A: relative probability (RP) (acc.to MMP9) (MMP-9; [3]): 5.64; relative probability (RP) (acc.to MMP2) (MMP-2; [4]): 4.71

Q: Which results are given for PQGLAG?
A: relative probability (RP) (MMP-9; [1]): 47.8621; relative probability (RP) (MMP-2; [2]): 33.5241

Q: What does the source list for QGAI?
A: relative probability (RP) (acc.to MMP9) (MMP-9; [3]): 0; relative probability (RP) (acc.to MMP2) (MMP-2; [4]): 1.94

Q: PFLI was tested. Which “MMP9 relative probability (RP)” value (MMP-9) did it give?
A: The value was 0.05937.

Q: And the “corresponding MMP2 relative probability (RP)” value (MMP-2)?
A: Its value is 22.6532.

Q: PTPKAL was tested. Which “relative probability (RP)” value (MMP-9; [1]) did it give?
A: Its value is 48.3581.

Q: And the “relative probability (RP)” value (MMP-2; [2])?
A: Its value is 34.4858.

Q: LREL was tested. Which “relative probability (RP) (acc.to MMP9)” value (MMP-9; [9]) did it give?
A: The value was 21.21.

Q: What about the “relative probability (RP)” value (MMP-9; [6]) of the same substance?
A: The value was 21.21.

Q: And the “relative probability (RP) (acc.to MMP9)” value (MMP-9; [7])?
A: Its value is 21.21.

Q: What about the “relative probability (RP) (acc.to MMP2)” value (MMP-2; [11]) of the same substance?
A: The value was 21.53.

Q: What about the “relative probability (RP) of matching tetramer” value (MMP-2) of the same substance?
A: Its value is 21.53.

Q: And the “relative probability (RP) (acc.to MMP2)” value (MMP-2; [8])?
A: Its value is 21.53.

Q: Which results are given for PMDIHA?
A: relative probability (RP) (MMP-9; [1]): 39.7367; relative probability (RP) (MMP-2; [2]): 8.254

Q: Which results are given for VPQEWR?
A: relative probability (RP) (MMP-9; [1]): 10.1914; relative probability (RP) (MMP-2; [2]): 10.5981

Q: Which “relative probability (RP) (acc.to MMP9)” value (MMP-9; [3]) does the source give for PENF here?
A: The value was 20.05.

Q: And the “relative probability (RP)” value (MMP-9; tetramer annotation of MMP-9 cleavage sites in physiologic substrates from MEROPS)?
A: The value was 20.05.

Q: And the “relative probability (RP) (acc.to MMP2)” value (MMP-2; [4])?
A: Its value is 16.

Q: Which “relative probability (RP) (acc.to MMP9)” value (MMP-9; [13]) does the source give for MNML here?
A: The value was 0.4.

Q: What about the “normalized RP - MMP9” value (MMP-9; unique part of MMP2 selectome) of the same substance?
A: The value was 0.007637.

Q: And the “relative probability (RP) of matching tetramer” value (MMP-2)?
A: The value was 8.39.

Q: And the “relative probability (RP) (acc.to MMP2)” value (MMP-2; [14])?
A: The value was 8.39.

Q: What about the “normalized RP - MMP2” value (MMP-2; unique part of MMP2 selectome) of the same substance?
A: The value was 0.2297.

Q: For ITGL, which “corresponding MMP9 relative probability (RP)” value (MMP-9) is on record?
A: Its value is 0.3587.

Q: What about the “MMP2 relative probability (RP)” value (MMP-2) of the same substance?
A: The value was 4.832.

Q: What about the “Relative probability (RP) rank” value (MMP-2; [5]) of the same substance?
A: Its value is 7648.

Q: And the “relative probability (RP)” value (MMP-2; [5])?
A: The value was 4.83.

Q: How did the “corresponding MMP9 relative probability (RP)” value (MMP-9) turn out when YSNI was run?
A: The value was 0.05486.

Q: What about the avg_RP (MMP-2; [10]) of the same substance?
A: The avg_RP was 14.6847.

Q: And the “MMP2 relative probability (RP)” value (MMP-2)?
A: Its value is 14.6847.

Q: And the “Relative probability (RP) rank” value (MMP-2; [5])?
A: Its value is 3195.

Q: And the “relative probability (RP)” value (MMP-2; [5])?
A: Its value is 14.68.

Q: Which results are given for SFGL?
A: MMP9 relative probability (RP) (MMP-9): 0.1902; relative probability (RP) (acc.to MMP9) (MMP-9; [3]): 10.79; corresponding MMP2 relative probability (RP) (MMP-2): 10.7897; relative probability (RP) (acc.to MMP2) (MMP-2; [4]): 0.19

Q: Which results are given for RMMREL?
A: relative probability (RP) (MMP-9; [1]): 21.3182; relative probability (RP) (MMP-2; [2]): 19.1524

Q: With PAQLHV as the substance, how does the “relative probability (RP)” value (MMP-9; [1]) read?
A: The value was 43.1805.

Q: What about the “relative probability (RP)” value (MMP-2; [2]) of the same substance?
A: Its value is 32.8467.

Q: Which “relative probability (RP)” value (MMP-9; [6]) does the source give for PMAL here?
A: Its value is 48.95.

Q: And the “relative probability (RP) (acc.to MMP9)” value (MMP-9; [7])?
A: The value was 48.95.

Q: And the avg_RP (MMP-2; average relative probability of the tetramer, redundant tetramers averaged out)?
A: The avg_RP was 34.1737.

Q: What about the “relative probability (RP) (acc.to MMP2)” value (MMP-2; [8]) of the same substance?
A: The value was 34.17.

Q: KSPLRQ was tested. Which “relative probability (RP)” value (MMP-9; [1]) did it give?
A: Its value is 29.0862.

Q: What about the “relative probability (RP)” value (MMP-2; [2]) of the same substance?
A: Its value is 11.8624.
